Columns and labels:
hPIV-1 strain C35 [1] = assay: Haemagglutination inhibition (HI) assay with human red blood cells; assay type: biochemical; conditions: hPIV1 C35
[2] = tested on: hPIV-3 strain CI002 (clinical isolate); assay: as above; assay type: biochemical; conditions: hPIV3 CI002
hPIV-3 strain JS [3] = assay: as above; assay type: biochemical; conditions: hPIV3 JS
hPIV-3 strain C243 [4] = assay: In situ ELISA virus growth inhibition in LLC-MK2 cells; assay type: cell-based; conditions: Human respirovirus 3, LLC-MK2; hPIV3 C243; Table 2
hPIV-3 strain JS [5] = assay: as above; assay type: cell-based; conditions: Human respirovirus 3, LLC-MK2; hPIV3 JS
[6] = molecular target: hPIV-3 strain C243 neuraminidase (UniProt P08492, species not given/STRAIN_C243); assay type: biochemical; conditions: hPIV3 C243; Table 2; read-out: NI IC50
hPIV-3 strain C243 neuraminidase, sequence (P08492 whole entry, change not shown): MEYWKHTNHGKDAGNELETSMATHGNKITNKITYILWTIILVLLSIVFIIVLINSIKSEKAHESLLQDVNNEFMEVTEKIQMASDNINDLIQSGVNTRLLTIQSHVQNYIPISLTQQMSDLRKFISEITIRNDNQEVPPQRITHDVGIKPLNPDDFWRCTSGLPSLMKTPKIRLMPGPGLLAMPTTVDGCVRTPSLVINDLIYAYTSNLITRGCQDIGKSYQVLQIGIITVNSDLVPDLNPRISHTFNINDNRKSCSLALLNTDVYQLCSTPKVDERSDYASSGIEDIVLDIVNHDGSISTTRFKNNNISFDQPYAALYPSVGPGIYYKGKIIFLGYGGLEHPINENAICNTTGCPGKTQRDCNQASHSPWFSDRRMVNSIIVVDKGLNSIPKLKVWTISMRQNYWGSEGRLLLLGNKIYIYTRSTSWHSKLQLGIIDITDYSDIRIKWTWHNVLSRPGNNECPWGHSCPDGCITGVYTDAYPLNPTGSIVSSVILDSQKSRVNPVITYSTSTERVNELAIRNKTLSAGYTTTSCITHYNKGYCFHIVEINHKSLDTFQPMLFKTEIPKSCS

hPIV-3 strain C243 [7] = assay: Haemagglutination inhibition (HI) assay with human red blood cells; assay type: biochemical; conditions: hPIV3 C243
[8] = tested on: hPIV-3 strain CI002 (clinical isolate); assay: In situ ELISA virus growth inhibition in LLC-MK2 cells; assay type: cell-based; conditions: Human respirovirus 3, LLC-MK2; hPIV3 CI002
hPIV-1 strain C35 [9] = assay: In situ ELISA virus growth inhibition; assay type: cell-based; conditions: hPIV1 C35
[10] = molecular target: hPIV-3 strain CI002 (clinical isolate) neuraminidase (UniProt P08492, species not given/STRAIN_CI002); assay type: biochemical; conditions: hPIV3 CI002; read-out: NI IC50
hPIV-3 strain CI002 (clinical isolate) neuraminidase, sequence (P08492 whole entry, change not shown): as above

SMILES: CC(=O)Nc1ccccc1-c1cn([C@H]2C=C(C(=O)O)O[C@@H]([C@H](O)[C@H](O)CO)[C@@H]2NC(C)=O)nn1
- IC50 (hPIV-1 strain C35 [1]): > 200 µM
- IC50 [2]: > 200 µM
- IC50 (hPIV-3 strain JS [3]): 40 µM
- IC50 (hPIV-3 strain C243 [4]): 126 µM
- IC50 (hPIV-3 strain JS [5]): 406 µM

SMILES: CC(=O)N[C@H]1[C@H]([C@H](O)[C@H](O)CO)OC(C(=O)O)=C[C@@H]1n1cc(-c2ccccc2NC(=O)c2cccc(OC(F)(F)F)c2)nn1
- IC50 [6]: 47.4 µM
- IC50 (hPIV-3 strain C243 [7]): > 200 µM
- IC50 [2]: > 200 µM
- IC50 (hPIV-3 strain JS [3]): > 250 µM
- IC50 (hPIV-3 strain C243 [4]): 217 µM
- IC50 (hPIV-3 strain JS [5]): > 500 µM

SMILES: COc1c(F)c(F)cc(C(=O)Nc2ccccc2-c2cn([C@H]3C=C(C(=O)O)O[C@@H]([C@H](O)[C@H](O)CO)[C@@H]3NC(C)=O)nn2)c1F
- IC50 [6]: 32.8 µM
- IC50 (hPIV-1 strain C35 [1]): > 200 µM
- IC50 (hPIV-3 strain JS [3]): > 250 µM
- IC50 (hPIV-3 strain C243 [4]): 177 µM
- IC50 (hPIV-3 strain JS [5]): 764 µM

SMILES: CC(=O)N[C@H]1[C@H]([C@H](O)[C@H](O)CO)OC(C(=O)O)=C[C@@H]1n1cc(-c2ccccc2NS(=O)(=O)c2ccc([N+](=O)[O-])cc2)nn1
- IC50 (hPIV-1 strain C35 [1]): > 200 µM
- IC50 (hPIV-3 strain C243 [7]): 2.56 µM
- IC50 [2]: 13.7 µM
- IC50 (hPIV-3 strain JS [3]): 4.48 µM
- IC50 [8]: 29.1 µM

SMILES: CC(=O)N[C@H]1[C@H]([C@H](O)[C@H](O)CO)OC(C(=O)O)=C[C@@H]1n1cc(-c2ccccc2NC(=O)CNC(=O)c2ccccc2)nn1
- IC50 (hPIV-1 strain C35 [1]): > 200 µM
- IC50 [2]: > 200 µM
- IC50 (hPIV-3 strain JS [3]): 20 µM
- IC50 (hPIV-3 strain JS [5]): 340 µM

SMILES: CC(=O)N[C@H]1[C@H]([C@H](O)[C@H](O)CO)OC(C(=O)O)=C[C@@H]1n1cc(-c2ccccc2NC(=O)CNC(=O)c2ccc(N(C)C)cc2)nn1
- IC50 (hPIV-1 strain C35 [1]): > 200 µM
- IC50 [2]: > 200 µM
- IC50 (hPIV-3 strain JS [3]): 14 µM
- IC50 (hPIV-3 strain JS [5]): 355 µM

SMILES: CC(=O)N[C@H]1[C@H]([C@H](O)[C@H](O)CO)OC(C(=O)O)=C[C@@H]1n1cc(-c2ccccc2NC(=O)CNC(=O)c2ccc(-c3ccccc3)cc2)nn1
- IC50 (hPIV-1 strain C35 [1]): > 200 µM
- IC50 [2]: 44.5 µM
- IC50 (hPIV-3 strain JS [3]): 6.4 µM
- IC50 (hPIV-3 strain C243 [4]): 23.7 µM
- IC50 (hPIV-3 strain JS [5]): 60.7 µM

SMILES: CC(=O)N[C@H]1[C@H]([C@H](O)[C@H](O)CO)OC(C(=O)O)=C[C@@H]1n1cc(-c2ccccc2NC(=O)CNS(=O)(=O)c2cccc([N+](=O)[O-])c2)nn1
- IC50 (hPIV-1 strain C35 [1]): > 200 µM
- IC50 [2]: 44.5 µM
- IC50 (hPIV-3 strain JS [3]): 15.4 µM
- IC50 [8]: 99.1 µM

SMILES: CC(=O)N[C@H]1[C@H]([C@H](O)[C@H](O)CO)OC(C(=O)O)=C[C@@H]1n1cc(-c2ccccc2NC(=O)CNS(=O)(=O)c2ccc([N+](=O)[O-])cc2)nn1
- IC50 (hPIV-1 strain C35 [1]): > 200 µM
- IC50 [2]: 23.9 µM
- IC50 (hPIV-3 strain JS [3]): 8 µM
- IC50 (hPIV-3 strain C243 [4]): 63.9 µM
- IC50 (hPIV-3 strain JS [5]): 240 µM
- IC50 (hPIV-1 strain C35 [9]): > 200 µM

SMILES: CC(=O)N[C@H]1[C@H]([C@H](O)[C@H](O)CO)OC(C(=O)O)=C[C@@H]1n1cc(-c2ccccc2NC(=O)CCNC(=O)C2CC2)nn1
- IC50 [6]: 30.2 µM
- IC50 (hPIV-3 strain C243 [7]): > 200 µM
- IC50 [2]: > 200 µM
- IC50 (hPIV-3 strain JS [3]): > 250 µM
- IC50 (hPIV-3 strain C243 [4]): 104 µM
- IC50 (hPIV-3 strain JS [5]): 602 µM

SMILES: O=C(O)C1=C[C@H](n2cc3c(Br)cccc3n2)[C@@H](NC(=O)C(F)(F)F)[C@H]([C@H](O)[C@H](O)CO)O1
- IC50 [6]: 3.95 µM
- IC50 [10]: 8.87 µM
- IC50 (hPIV-1 strain C35 [1]): 4.94 µM
- IC50 [2]: 7.41 µM

SMILES: N#Cc1ccc2nn([C@H]3C=C(C(=O)O)O[C@@H]([C@H](O)[C@H](O)CO)[C@@H]3NC(=O)C(F)(F)F)cc2c1
- IC50 [6]: 47.9 µM
- IC50 [10]: 143 µM
- IC50 (hPIV-1 strain C35 [1]): 66.7 µM
- IC50 [2]: > 200 µM
- IC50 (hPIV-3 strain JS [3]): 133 µM

SMILES: N#Cc1ccc2cn([C@H]3C=C(C(=O)O)O[C@@H]([C@H](O)[C@H](O)CO)[C@@H]3NC(=O)C(F)(F)F)nc2c1
- IC50 [6]: 49.8 µM
- IC50 [10]: 208 µM
- IC50 (hPIV-1 strain C35 [1]): > 200 µM
- IC50 [2]: > 200 µM
- IC50 (hPIV-3 strain JS [3]): > 200 µM

SMILES: CC(C)C(=O)N[C@H]1[C@H]([C@H](O)[C@H](O)CO)OC(C(=O)O)=C[C@@H]1n1cc2ccc(C(=O)O)cc2n1
- IC50 [6]: 211 µM
- IC50 [10]: 378 µM
- IC50 (hPIV-1 strain C35 [1]): > 200 µM
- IC50 [2]: > 200 µM
- IC50 (hPIV-3 strain JS [3]): > 200 µM

SMILES: CC(=O)N[C@H]1[C@H]([C@H](O)[C@H](O)CO)OC(C(=O)O)=C[C@@H]1n1cc(-c2ccccc2NC(=O)CCNS(=O)(=O)c2ccc([N+](=O)[O-])cc2)nn1
- IC50 (hPIV-1 strain C35 [1]): > 200 µM
- IC50 [2]: > 200 µM
- IC50 (hPIV-3 strain JS [3]): 38.5 µM
- IC50 [8]: 287 µM

SMILES: CC(=O)N[C@H]1[C@H]([C@H](O)[C@H](O)CO)OC(C(=O)O)=C[C@@H]1n1cc(-c2ccccc2NC(=O)CCNS(=O)(=O)Cc2ccccc2)nn1
- IC50 [6]: 21.2 µM
- IC50 [10]: 53.9 µM
- IC50 (hPIV-1 strain C35 [1]): > 200 µM
- IC50 [2]: > 200 µM
- IC50 (hPIV-3 strain JS [3]): > 200 µM

SMILES: O=C(O)C1=C[C@H](n2cc3ccc(F)cc3n2)[C@@H](NC(=O)C(F)(F)F)[C@H]([C@H](O)[C@H](O)CO)O1
- IC50 [6]: 12.9 µM
- IC50 [10]: 103 µM
- IC50 (hPIV-1 strain C35 [1]): 133 µM
- IC50 [2]: 22.2 µM

SMILES: COc1ccc(OC)c2nn([C@H]3C=C(C(=O)O)O[C@@H]([C@H](O)[C@H](O)CO)[C@@H]3NC(=O)C(F)(F)F)cc12
- IC50 [6]: 11.2 µM
- IC50 [10]: 74.2 µM
- IC50 (hPIV-3 strain C243 [7]): 14.8 µM

Source: patent US20220274965A1, “ANTIVIRAL AGENTS AND USES THEREOF” (GRIFFITH UNIVERSITY, priority 2019, published 2022)
